# “Also recorded” adds a separate entry of the source.
# What was measured:
# PARP1 cleavage [1] = experiment: Western blot of PARP1 cleavage in MET5A cells; assay type: cell-based; settings: 10 nM 2 hours pre-treatment, cisplatin 25, 50, 100 μM
# Method: (§1) Cells were extracted with 1% NP-40 lysis buffer (1% NP-40, 150 mM NaCl, 50 mM Tris-HCl pH 8.5 mM EDTA, 10 mM NaF, 10 mM Na4P2O7, 0.4 mM Na3VO4) with freshly added protease inhibitors (10 μg/ml leupeptin, 4 μg/ml pepstatin and 0.1 Unit/ml aprotinin). For protein extraction from tissues, ˜100 mg of each sample were homogenized, using a Potter-Elvehjem homogenizer device, in 1% NP-40 lysis buffer. Lysates were centrifuged at 13.000×g for 10 minutes at 4° C. and the supernatants were collected and assayed for protein concentration with the Bio-Rad protein assay method.
# (§2) Proteins were separated by SDS-PAGE under reducing conditions. Following SDS-PAGE, proteins were transferred to nitrocellulose, reacted with specific antibodies and then detected with peroxidase-conjugate secondary antibodies and chemioluminescent ECL reagent. Densitometric analysis was performed using the GS 250 Molecular Image (Bio-Rad).
# (§3) Levels of PARP1, cleaved PARP1, AKT and phosphorylated AKT in the MET5A cell cultures at 24 hours were also determined by Western blot analysis and relative densitometry.
# MSTO-211H cells = experiment: Proliferation assay in ERβ negative MSTO-211H cells; assay type: cell-based; settings: 10 nM single agent, 24 and 48 hours
# Method: (§4) Cells were seeded at a density of 10×10^4 cells/well in 6-well plates in RPMI medium supplemented with 10% FBS, 100 μg/ml streptomycin and 10 μg/ml penicillin and incubated over-night at 37° C. in a humidified environment containing 5% CO2 to allow adherence. Following treatment cells were trypsinized and stained with Trypan blue. The number of cells considered viable (unstained cells) was counted in a Bürker haemocytometer within 5 minutes after staining.
# MMP cells = experiment: Proliferation assay (wash-off experiment) in MMP cells; assay type: cell-based, human; settings: 10 nM 2 hours, 50 μM cisplatin 24 hours
# Method: as §4
# (§5) Cell cultures were pretreated with Compound (I) for 1-16 hours (depending on experiment) followed by wash-off and then replenished with normal growth medium±cisplatin, pemetrexed or cisplatin/pemetrexed. Total incubation time was 24-72 hours (depending on experiment). Control cultures were maintained in normal growth medium without added drug. The number of viable cells was determined as described for the proliferation assay.
# 50 μM cisplatin was added to MMP cell cultures pre-treated for 2 hours with 10 nM Compound (I) (wash-off experiment). The number of viable cells at 24 hours was determined as described for the proliferation assay above. Control cultures were maintained in normal growth medium; growth medium plus Compound (I) (10 nM); and growth medium plus cisplatin (50 μM).
# [2] = Treatment toxicity by mice body weights; assay type: in vivo; settings: 10 mg/kg/day s.c. during drug administration
# Method: Animals. CD1 nude mice (males, 6 weeks old; Charles River, Calco, Italy) received intraperitoneal (i.p.) injections of 2×10^6 luciferase transduced REN cells in 0.5 mL of RPMI medium. After anesthetization and i.p. injections of 0.3 mL of 15 mg/mL D-luciferin, tumor dimension and localization of luminescent cells was monitored using the In Vivo Imaging System (IVIS) series (Xenogen Corporation, Hopkinton, Mass., USA). Regions of interest were identified around the tumor sites and were quantified as total photon counts using Living Image software (Xenogen Corporation). The values of tumor sizes were obtained, subtracting luminescence signals of each weekly measurement by the average of all animals within a treatment group on the 15th day after inoculation (day when treatment started). To evaluate treatment toxicity, mice were weighed at the start and end of treatments. Mice were killed and necropsied after 20 days of treatment. In vivo experiments were approved by Istituto Scientifico Tumori (Genoa, Italy) ethical committee and conform to the relevant regulatory standards. Mice were maintained and handled under aseptic conditions, and were allowed access to food and water ad libitum.
# AKT phosphorylation = experiment: Western blot of AKT phosphorylation in MET5A cells; assay type: cell-based; settings: 10 nM 2 hours pre-treatment
# Method: as §1, §2, §3
# PARP1 cleavage [3] = experiment: Western blot of PARP1 cleavage in REN cells; assay type: cell-based, human
# Method: as §1, §2
# Levels of PARP1, cleaved PARP1, AKT and phosphorylated AKT in REN cells treated for 24 hours with cisplatin (25, 50 and 100 μM) or pre-treated 2 hours with Compound (I) (10 nM) followed by wash-off and continued growth in normal medium±cisplatin (25, 50 and 100 μM), for an additional 24 hours were also determined by Western blot analysis and relative densitometry. Total AKT and Tubulin staining were used for normalization. PARP1 cleavage was analysed as it is an indicator of apoptotic cell death. As increased AKT activity has been implicated in the control of proliferation, apoptosis and cisplatin resistance (Pinton G., et al, PLoS One (2012) 7:e36856), AKT activation status following different treatments was also analysed.
# MET5A cells = experiment: Proliferation assay in non-malignant mesothelial MET5A cells; assay type: cell-based
# Method: as §4, §5
structure (smiles),measurement,setting,value
Cc1noc(C)c1-c1c(/C(N)=N/O)c2ccccc2n1-c1ccc(O)cc1 [Compound (I)],percentage of cleaved PARP1 in MET5A cells,PARP1 cleavage [1],reduced the percentage of cleaved PARP1 in cells exposed to all concentrations of cisplatin
same,"inhibition of proliferation, MSTO-211H cells",MSTO-211H cells,no response
same,"anti-proliferative effect in MMP cells, pre-treatment then cisplatin",MMP cells,enhanced anti-proliferative effect of cisplatin was observed; also recorded: synergistic growth inhibition compared to Compound (I) or cisplatin alone
same,toxicity assessed by changes of mice body weights,[2],not to be toxic
same,basal pAKT levels in MET5A control cells,AKT phosphorylation; no cisplatin,no effect on basal pAKT levels
same,effect on cisplatin-mediated inhibition of pAKT in MET5A cells,AKT phosphorylation; then cisplatin,antagonized the cisplatin-mediated inhibition of pAKT
same,"appearance of cleaved PARP1, pre-treatment then cisplatin","PARP1 cleavage [3]; 10 nM 2 hours prior to cisplatin (25, 50, 100 μM) 24 hours",greatest effect on the appearance of cleaved PARP1
same,"PARP1 cleavage, single agent",PARP1 cleavage [3]; agent alone,neither cisplatin nor Compound (I) alone resulted in significant PARP1 cleavage
same,effect on cisplatin toxicity in MET5A cells,"MET5A cells; 10 nM 2 hours pre-treatment, wash-off, cisplatin 25, 50, 100 μM 24 hours",protective effect was observed when Compound (I) pre-treatment was combined with low doses of cisplatin; also recorded: diminished and/or counteracted the toxicity of cisplatin
same,"MET5A cell proliferation or viability, alone","MET5A cells; 10 nM 2 hours, wash-off, normal medium 24 hours",no effect on MET5A cell proliferation or viability
same,"inhibition of proliferation, MET5A cells","MET5A cells; 10 nM single agent, 24 and 48 hours, high endogenous ERβ",no inhibitory effect was observed
